The record followed here is ChEMBL document CHEMBL6127158, “Novel Aminopyrazole Inhibitors of PDE11A for the Treatment of Alzheimer's Disease and Other Types of Dementia” (ACS Med Chem Lett, 2024).

SMILES strings stand for the structures. Activity calls are given as the source filed them. The rule behind the calls is not given here.

As usually defined, the inhibition is the share of the control response that was lost under treatment.

Dual 3',5'-cyclic-AMP and -GMP phosphodiesterase 11A (Homo sapiens), sequence (Q9HCR9 whole entry, looked up, the tested form may be a part): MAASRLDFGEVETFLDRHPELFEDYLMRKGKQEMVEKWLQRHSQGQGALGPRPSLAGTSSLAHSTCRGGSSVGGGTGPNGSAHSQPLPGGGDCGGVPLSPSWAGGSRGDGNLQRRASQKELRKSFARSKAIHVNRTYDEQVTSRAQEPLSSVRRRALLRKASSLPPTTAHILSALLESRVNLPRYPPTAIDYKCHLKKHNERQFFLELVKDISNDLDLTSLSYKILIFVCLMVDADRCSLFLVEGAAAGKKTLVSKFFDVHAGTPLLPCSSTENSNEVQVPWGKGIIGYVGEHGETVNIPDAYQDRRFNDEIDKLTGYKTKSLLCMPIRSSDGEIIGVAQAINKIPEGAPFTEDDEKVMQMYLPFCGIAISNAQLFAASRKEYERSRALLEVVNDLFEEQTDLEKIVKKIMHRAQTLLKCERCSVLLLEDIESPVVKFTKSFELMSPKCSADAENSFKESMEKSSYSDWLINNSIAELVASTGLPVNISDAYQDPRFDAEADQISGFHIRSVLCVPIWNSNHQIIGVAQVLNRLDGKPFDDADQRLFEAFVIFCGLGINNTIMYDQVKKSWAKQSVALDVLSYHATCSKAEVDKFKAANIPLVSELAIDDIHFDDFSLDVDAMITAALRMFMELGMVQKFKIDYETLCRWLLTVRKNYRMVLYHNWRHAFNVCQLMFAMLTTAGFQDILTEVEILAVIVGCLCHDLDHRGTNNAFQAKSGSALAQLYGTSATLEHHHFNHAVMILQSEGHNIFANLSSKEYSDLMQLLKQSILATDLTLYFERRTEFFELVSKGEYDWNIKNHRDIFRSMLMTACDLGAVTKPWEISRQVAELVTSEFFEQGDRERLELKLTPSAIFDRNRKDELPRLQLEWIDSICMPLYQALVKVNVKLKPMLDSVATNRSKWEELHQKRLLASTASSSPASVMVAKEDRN

The assay has as its target Dual 3',5'-cyclic-AMP and -GMP phosphodiesterase 11A (Homo sapiens) (UniProt Q9HCR9). Put plainly: Inhibition of recombinant N-terminal GST-tagged human PDE11A4 (1 to 943 residues) expressed in Sf9 cells at 500 nM using cGMP and cAMP as substrates by Ba(OH)2 precipitation method relative to control.
As for `CCN(CC)C(=O)c1ccnc2c1c(C)nn2-c1ccccc1`, the inhibition entry is “inactive”.

`CCN(CC)C(=O)c1cc(-c2ccnn2C)nc2c1c(C)nn2-c1ccc(Cl)c(F)c1`: the inhibition was determined as 51%.

As for `Cc1nn(-c2ccccc2)c2nc(-c3cccs3)cc(C(=O)N3CCCC3)c12`, the inhibition amounted to 1%.
